Data as given in patent US20020055174A1, “Complex for transferring an anionic substance of interest into a cell” (priority 2000, published 2002).
“Also recorded” adds a separate entry of the source. Ends that are not written are not given here.

Key:
HeLa cells [1] = experiment: Transfection in the presence of Bafilomycin A; assay type: cell-based; details: 175 nM Bafilomycin A, 150 ng pTG11236
Description: Transfection in the presence of Bafilomycin A: 6×10^4 HeLa cells were plated on 24 well plates. Cells were treated with 175 nM Bafilomycin A 30 min before and throughout the transfection (1 h incubation of cells with transfection mix in the absence of serum).
Bafilomycin A is a specific inhibitor of the vacuolar proton pump. Treatment with Bafilomycin inhibits the acidification of late endosomes. HeLa cells were treated with Bafilomycin A (175 nM) 30 min before and throughout the transfection (1 h incubation with transfection complexes in the absence of serum). 6×10^4 cells were transfected with 150 ng pTG11236 using PEI or ppTG1. The luciferase assay was performed 1 day after transfection.

HeLa cells [2] = experiment: Transfection in vitro, luciferase plasmid pTG11236; assay type: cell-based
Description: Cells were plated on 24 well plates at a density of 4×10^4 (293-EBNA ) or 7×10^4 (HeLa, Renca) cells/well in DMEM supplemented with 10% FCS. The next day, the medium was replaced by 200 μl serum-free DMEM and plasmid (pTG11056 or pTG11236)/peptide complexes or plasmid/peptide/lipid complexes were prepared in 30 μl 0.9% NaCl or 5% glucose. After 20 min at room temperature these complexes were added to the cells which were then incubated for 2-3 h at 37° C. and 5% CO2 before 1 ml serum-containing DMEM was added. Approximately 20-hours later, cells were lysed by addition of 100 μl 1× Promega lysis buffer, 20 μl of the lysates were analysed for luciferase activity. Proteins were quantified with the bicinchonic acid (BCA) colorimetric method (Smith, Anal. Biochem. 150 (1985), 76-85).
In another experiment, 7×10^4 HeLa cells, seeded on 24-well plates the day before transfection, were transfected with 0.5 μg or 0.05 μg pTG11236, complexed with Lipofectin or ppTG1. The plasmid/peptide complexes were prepared in 30 μl of 5% glucose or 0.9% NaCl and added to the cells (200 μl serum-free medium) after 20 min at room temperature. Serum-containing medium was added after 3 h, the cells were harvested the next day.
A comparison of the effect on transfection efficiency of ppTG1 and JTS-1-K13 was carried out in HeLa cells. Complexes of 0.5 μg or 0.05 μg pTG11236 were formed with increasing amounts the respective peptide.
(§1) A comparison of ppTG1 and KALA was carried out in HeLa and CHO cells. 5×10^4 cells were seeded on 24 well plates. The next day, cells were transfected with 500 ng and 50 ng of pTG11236, complexed with ppTG1 or KALA in 30 μl 0.9% NaCl. The charge ratio +/− varied from 1, 2, 3, 4, 7 to 10. Cells were harvested 20 h after transfection and lysis was obtained in 100 μl Promega lysis buffer. Luciferase activity and total protein concentrations in 20 μl were determined.
HeLa cells were seeded at a density of 6×10^4 cells on 24 well plates. The next day, cells were incubated with 200 μl serum-free medium, 30 μl of plasmid (50 ng)/peptide/lipid mixtures were added and incubated for 3 h at 37° C. in 5% CO2. 1 ml of DMEM+10% FCS was then added. The next day, the medium was removed and cells were washed with 500 μl of PBS and subsequently treated with 100 μl of Promega lysis buffer. Plates were stored at −80° C. until luciferase activity was measured of 20 μl of the cell lysate. The protein assay was performed using the Pierce BCA kit.
JTS1 was dissolved to 1 mg/ml in 1 mM NaOH and mixed with DNA diluted in 5% glucose. ppTG1 was then added to this solution. The pcTG90/DOPE ppTG1 mixtures were prepared as described in Example 6. Transfection assays were performed on HeLa cells with 50 ng of plasmid as described in Example 6.
The series of ppTG1 derivatives listed in Material and Methods were tested for their gene transfer efficiencies in Hela cells. 6×10^4 cells were transfected with 50 ng pTG11236 complexed with increasing amounts of peptide. Luciferase activity was analyzed day 1 after transfection. The results are shown in FIG. 10B (ppTG20, ppTG21), FIG. 10C(ppTG25, ppTG26, ppTG27), FIG. 10D (ppTG28 to ppTG33), FIG. 10E (PEG-ppTG1 and PEG-ppTG20), FIG. 10F (ppTG22 to ppTG24) and FIG. 10G (ppTG20-D).

CHO cells = experiment: Transfection in vitro, luciferase plasmid pTG11236; assay type: cell-based
Description: as §1

[3] = test system: WiDr, MDA-MB-435S, SW480 and LoVo; experiment: Transfection of human tumor cell lines; assay type: cell-based; details: ppTG1/plasmid pTG11236 complexes, luciferase day 1
Description: WiDr (ATCC CCL-218), MDA-MB-435S (ATCC HTB-129), SW480 (ATCC CCL-228) and LoVo cell (CCL-229) were cultivated in the appropriate medium with 10% fetal calf serum, 1% gentamycine, 1% glutamine and 3 g/l glucose, in an incubator at 37° C. and 5% CO2.
The transfection efficiencies with plasmid/ppTG1 complexes were tested in the human tumor cells WiDr, MDA-MB-435S, SW480 and LoVo (ATCC) in comparison to lipofectin, PEI and pcTG90/DOPE (1:1) [+/−] 5.

B6SJL mice = test system: B6SJL mice
Description: Indicated amounts of the luciferase expression plasmid pTG11236 were mixed with ppTG1 and /or pcTG90/DOPE. The resulting formulations were injected intramuscularly(30 μl), intravenously(250 μl) into mice or intratumorally (Renca tumors, 100 μgl). Muscles, tumors or organs were recovered at the indicated points of time, macerated and tested for luciferase activity with the luciferase assay kit from Promega.
60 μg or 30 μg of the plasmid pTG11236 were mixed with peptide ppTG1 and/or with a pcTG90/DOPE 1:2 mixture in 250 μl 5% glucose. After 20 min incubation at room temperature, the complexes were intravenously injected into B6SJL mice. Mice were sacrificed at day 1. The lungs were recovered, total protein was extracted and luciferase activity was analysed.
The potential of gene transfer with mono-component peptide vectors was investigated in vivo. Fifty or sixty μg of the luciferase expression plasmid pTG11236 were complexed with pcTG90/DOPE (1:2) [+/−] 10 in 250 μl 5% glucose (Meyer et al. 2000). The resulting lipoplex vector served as reference for gene transfer studies with pTG11236 complexed with ppTG1, ppTG20 and ppTG32 in 250 μl 5% glucose. Five mice per group were intravenously injected, the animals were sacrificed at day 1 after injection. Lungs were tested for luciferase activity.

[4] = 60 μg pTG11236 with 150 μg ppTG1

In the case of GLFKALLKLLKSLWKLLLKA, the “effect of Bafilomycin A on transfection efficiency” value (HeLa cells [1]) is reported as “not diminished; also recorded: did not influence the transfection efficiency”, the luciferase activities (HeLa cells [2]; 0.05 μg pTG11236, complexes in 0.9% NaCl) is reported as “higher luciferase activities than observed for Lipofectin formulations” and the luciferase activities (HeLa cells [2]; 0.5 μg or 0.05 μg pTG11236 with 1.17 μg or 0.117 μg ppTG1, charge ratio 1.8) is reported as “comparable luciferase activities as observed for DNA formulated with Lipofectin”. The “more efficient than the complex comprising KALA, best case” value (HeLa cells [2]; HeLa) was 3000 fold, the “more efficient than the complex comprising KALA, best case” value (CHO cells) was 2500 fold and the “more efficient in gene transfer than KALA” value (CHO cells; 50 ng pTG11236, optimum charge ratios) was 68 fold. For the same sequence, the “more efficient in gene transfer than KALA” value (CHO cells; 500 ng pTG11236, optimum charge ratios) was 9 fold, the “transfection of human tumor cell lines” value [3] was “successfully transfected; also recorded: can efficiently transfect human tumor cell lines, especially SW480 cells” and the “reporter gene expression after re-administration at day 3” value (B6SJL mice; [4]) was “still refractory”. The “reporter gene expression after re-administration at day 14” value (B6SJL mice; [4]) was “re-appearance of reporter gene expression”, the “mice with gene expression in the lung” value (B6SJL mice; complexes of pTG11236 and ppTG1, i.v., day 1) was 5 out of 5 and the “gene expression 3 days after injection” value (B6SJL mice; ppTG1/plasmid complexes, data not shown) was “dropped 3 days after injection to background levels”.
